Data taken from patent publication US20110166063A1 (priority 2008, published 2011).
Values joined by “and” are separate entries in the source; they are usually repeats but may differ in a detail not shown here. Equal values may be shown once. Marks after values point to notes of the source that are not given here. Square brackets hold non-standard residues; d marks the D form. Ends that are not written are not given here. Peptide text beside a SMILES is read from it.

Legend:
[1] = Pharmacokinetic study of BNP conjugates, single IV dose in rats; assay type: in vivo, Sprague-Dawley rats; details: for Cmax: test article in plasma (non-releasable PEG-BNP or native BNP)
Description: All animals were food fasted overnight.
Following the last collection point, the animals were euthanized. […]

[2] = molecular target: T1, GPR54 G-Protein coupled receptor (Homo sapiens, UniProt Q969F8); experiment: FLIPR calcium flux agonist assay on GPR54; assay type: cell-based; details: no release incubation
T1 construct: host or cells: Chem-1 host cells

[3] = Pharmacokinetic study of protegrin conjugates, single IV dose in rats; assay type: in vivo, Sprague-Dawley rats
Protocol: The weight range of the animals was 313-346 grams. All animals were food fasted overnight.
Following the last collection point, the animals were euthanized. Bioanalytical analysis: analysis of the plasma samples was conducted using non-validated LC-MS/MS methods.

[4] = Pharmacokinetic study of V681 (V13AD) conjugates, single IV dose in rats; assay type: in vivo, Sprague-Dawley rats; details: 1.0 mg/kg equivalent protein mass IV
Description: The weight range of the animals was 311-346 grams. All animals were food fasted overnight. […] The predose sample was collected from the JVC.
Following the last collection point, the animals were euthanized.

db/db diabetic mice = experiment: Blood glucose levels in db/db diabetic mice after i.p. injection; assay type: in vivo
Protocol: At different time points after dosing blood glucose levels were measured.
PBS saline solution and Dextran equivalent dose were administrated as negative controls.

[5] = rat, in vivo, protegrin-1 in plasma (released or native), 1.6 mg/kg equivalent protein mass IV
[6] = test compound in plasma (non-releasable conjugates, native PG-1), […] equivalent protein mass IV, Mean ± SD
[7] = protegrin-1 in plasma (released or native), […] equivalent protein mass IV
[8] = 0.459 mg/kg equivalent protein mass IV, rats
[9] = test article in plasma (non-releasable PEG-BNP), 0.459 mg/kg equivalent protein mass IV, rats
[10] = BNP in plasma (released from conjugate or given as native), 0.459 mg/kg equivalent protein mass IV, rats
[11] = intact C2-FMOC-PEG2-40K-BNP, IV bolus, rats

T1 sequence (Q969F8 whole entry): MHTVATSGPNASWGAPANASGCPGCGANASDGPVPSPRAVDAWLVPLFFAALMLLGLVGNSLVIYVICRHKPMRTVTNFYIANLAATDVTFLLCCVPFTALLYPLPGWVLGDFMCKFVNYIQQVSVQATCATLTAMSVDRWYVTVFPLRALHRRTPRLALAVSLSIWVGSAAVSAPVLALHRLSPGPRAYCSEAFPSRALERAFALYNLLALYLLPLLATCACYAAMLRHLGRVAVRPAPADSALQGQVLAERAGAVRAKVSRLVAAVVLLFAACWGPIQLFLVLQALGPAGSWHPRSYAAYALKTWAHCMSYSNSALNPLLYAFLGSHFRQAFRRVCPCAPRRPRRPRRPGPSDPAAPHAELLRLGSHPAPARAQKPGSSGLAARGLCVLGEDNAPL

CC[C@H](C)[C@@H]1NC(=O)[C@H](CCCNC(=N)N)NC(=O)[C@H](CC(=O)O)NC(=O)[C@H](CCSC)NC(=O)[C@H](CCCCN)NC(=O)[C@H](CCCNC(=N)N)NC(=O)CNC(=O)[C@H](Cc2ccccc2)NC(=O)[C@@H](NC(=O)CNC(=O)[C@H](CO)NC(=O)CNC(=O)[C@H](CCC(N)=O)NC(=O)[C@@H](NC(=O)[C@H](CCSC)NC(=O)[C@H](CCCCN)NC(=O)[C@@H]2CCCN2C(=O)[C@@H](N)CO)C(C)C)CSSC[C@@H](C(=O)N[C@@H](CCCCN)C(=O)N[C@H](C(=O)N[C@@H](CC(C)C)C(=O)N[C@@H](CCCN=C(N)N)C(=O)N[C@@H](CCCN=C(N)N)C(=O)N[C@@H](Cc2cnc[nH]2)C(=O)O)C(C)C)NC(=O)CNC(=O)[C@H](CC(C)C)NC(=O)CNC(=O)[C@H](CO)NC(=O)[C@H](CO)NC(=O)[C@H](CO)NC(=O)[C@H](CO)NC1=O [BNP, Brain Natriuretic Peptide (BNP-32), reference compound]
level at 0.03 h ([1]; male, Sprague-Dawley, rat, plasma, 0.03 hr after IV BNP administration, all animals, read-out: plasma concentration at first time point): < 20 ng/mL

CC(C)C[C@H](NC(=O)CNC(=O)[C@H](Cc1ccccc1)NC(=O)[C@H](CO)NC(=O)[C@H](CC(N)=O)NC(=O)[C@H](Cc1c[nH]c2ccccc12)NC(=O)[C@H](CC(N)=O)NC(=O)[C@@H](N)Cc1ccc(O)cc1)C(=O)N[C@@H](CCCNC(=N)N)C(=O)N[C@@H](Cc1ccccc1)C(N)=O [KP10, Kisspeptin-10]
EC50 ([2]; agonist activation at GPR54): 10 to 14 nM and 10 nM | Fold change compared to metastin [2]: 1

CC(C)C[C@H](NC(=O)[C@H](CCCNC(=N)N)NC(=O)CNC(=O)CNC(=O)[C@@H](N)CCCNC(=N)N)C(=O)N[C@H]1CSSC[C@@H](C(=O)N[C@H](C(=O)NCC(=O)N[C@@H](CCCNC(=N)N)C(N)=O)C(C)C)NC(=O)[C@H](C(C)C)NC(=O)[C@@H]2CSSC[C@H](NC(=O)[C@H](Cc3ccc(O)cc3)NC1=O)C(=O)N[C@@H](CCCNC(=N)N)C(=O)N[C@@H](CCCNC(=N)N)C(=O)N[C@@H](CCCNC(=N)N)C(=O)N[C@@H](Cc1ccccc1)C(=O)N2 [Protegrin-1, reference compound]
AUC(0-inf) [3, 5]: 1160 ± 351 ng·h/mL | Cmax [3, 5]: 2050 ± 601 ng/mL | MRT last [3, 5]: 31.2 ± 3 min | half-life [3, 5]: 21 min | Tmax ([3]; rat, in vivo, protegrin-1 in plasma (released or native), 1.6 mg/kg equivalent protein mass IV, read-out: Tmax): 1.8 min | clearance ([3]; rat, in vivo, test compound in plasma (non-releasable conjugates, native PG-1), 1.6 mg/kg equivalent protein mass IV, Mean ± SD): 24.5 mL/min/kg | Vd ([3]; rat, in vivo, test compound in plasma (non-releasable conjugates, native PG-1), 1.6 mg/kg equivalent protein mass IV, Mean ± SD, read-out: Vss): 0.848 ± 0.36 L/kg

CC[C@H](C)[C@H](NC(=O)[C@H](C)NC(=O)[C@H](CCCCN)NC(=O)[C@H](CC(C)C)NC(=O)[C@H](C)NC(=O)[C@@H](NC(=O)[C@H](Cc1c[nH]cn1)NC(=O)[C@H](CC(C)C)NC(=O)[C@@H](NC(=O)[C@@H](NC(=O)[C@H](CCCCN)NC(=O)[C@@H](C)NC(=O)[C@H](C)NC(=O)[C@H](CO)NC(=O)[C@H](CCCCN)NC(=O)[C@H](Cc1ccccc1)NC(=O)[C@@H](NC(=O)[C@H](CCCCN)NC(=O)[C@H](CC(C)C)NC(=O)[C@H](Cc1ccccc1)NC(=O)[C@H](CO)NC(=O)[C@H](CCCCN)NC(=O)[C@H](Cc1c[nH]c2ccccc12)NC(=O)[C@H](CCCCN)NC(C)=O)[C@@H](C)O)[C@@H](C)O)C(C)C)[C@@H](C)O)C(=O)N[C@@H](CO)C(=O)N[C@@H](CO)C(N)=O [V681 (V13AD), V681(V13AD), reference compound] (Ac-KWKSFLKTFKSA[dA]KTVLHTALKAISS-NH2)
AUCINF [4]: 7210 ± 1430 ng·h/mL | CL [4]: 2.37 ± 0.433 mL/min/kg | Cmax [4]: 16500 ± 9670 ng/mL | MRT [4]: 19.8 ± 4.8 min | T1/2 [4]: 36.6 ± 23.4 min | Vss [4]: 0.0477 ± 0.018 L/kg

(PG-1)-(ALD)22K-(PG-1) (RGGRLCYCRRRFCVCVGR-NH2; cysteine pairing not given here; also: two peptide copies linked by PEG-dibutyraldehyde 2K; UniProt P32194 131-148, looked up) [PG-1-PEG-2K-PG-1, non-releasable di-peptide conjugate with bi-functional PEG-butyraldehyde-2K]
CL [3, 6]: 3.48 ± 0.455 mL/min/kg | T1/2 [3, 6]: 438 ± 66 min | Vss [3, 6]: 0.432 ± 0.0405 L/kg

ALD40K-PG-1 (RGGRLCYCRRRFCVCVGR-NH2; cysteine pairing not given here; also: mPEG2-butyraldehyde 40K conjugate; UniProt P32194 131-148, looked up) [mPEG2-40K-PG-1, non-releasable conjugate of protegrin-1 with mPEG2-butaraldehyde-40K]
CL [3, 6]: 0.548 ± 0.207 mL/min/kg | T1/2 [3, 6]: 648 ± 180 min | Vss [3, 6]: 0.32 ± 0.131 L/kg

Insulin
Blood glucose level, Mean (db/db diabetic mice; Ins 5 ug/mouse, time 0 hr, N = 5): 510 mg/dL | Blood glucose level, Mean (db/db diabetic mice; Ins 5 ug/mouse, time 1 hr, N = 5): 265 mg/dL | Blood glucose level, Mean (db/db diabetic mice; Ins 5 ug/mouse, time 2 hr, N = 5): 352 mg/dL | Blood glucose level, Mean (db/db diabetic mice; Ins 5 ug/mouse, time 4 hr, N = 5): 587 mg/dL | Blood glucose level, Mean (db/db diabetic mice; Ins 5 ug/mouse, time 8 hr, N = 5): 538 mg/dL | Blood glucose level, Mean (db/db diabetic mice; Ins 5 ug/mouse, time 24 hr, N = 5): 538 mg/dL | Blood glucose level, Mean (db/db diabetic mice; Ins 50 ug/mouse, time 0 hr, N = 5): 445 mg/dL | Blood glucose level, Mean (db/db diabetic mice; Ins 50 ug/mouse, time 1 hr, N = 5): 210 mg/dL | Blood glucose level, Mean (db/db diabetic mice; Ins 50 ug/mouse, time 2 hr, N = 5): 150 mg/dL | Blood glucose level, Mean (db/db diabetic mice; Ins 50 ug/mouse, time 4 hr, N = 5): 550 mg/dL | Blood glucose level, Mean (db/db diabetic mice; Ins 50 ug/mouse, time 8 hr, N = 5): 558 mg/dL | Blood glucose level, Mean (db/db diabetic mice; Ins 50 ug/mouse, time 24 hr, N = 5): 541 mg/dL

[mono]-[4,7-CG-PEG2-FMOC-NHS-40K]-[protegrin-1] (RGGRLCYCRRRFCVCVGR-NH2; cysteine pairing not given here; also: releasable CG-PEG2-FMOC 40K PEG, site not given here; UniProt P32194 131-148, looked up) [CG-PEG2-FMOC-40K-PG-1, releasable PEG conjugate of protegrin-1]
T1/2 (hr) [3, 7]: 1.95* hr | Tmax [3, 7]: 1.8 min

[mono]-[mPEG2-Butyr-ALD-40K]-[BNP-32] [ButyrALD-40K-BNP]
Cmax [1, 8]: 1410 ng/mL | AUCINF [1, 9]: 41300 ng·h/mL | CL [1, 9]: 0.185 mL/min/kg | MRTlast [1, 9]: 1440 min | T½ [1, 9]: 1570 min | Vss [1, 9]: 0.631 L/kg

[mono]-[mPEG2-C2-fmoc-NHS-40K]-[BNP-32] [C2-FMOC-PEG2-40K-BNP]
AUCINF [1, 10]: 162 ng·h/mL | MRTlast [1, 10]: 110 min | Tmax ([1]; BNP in plasma (released from conjugate or given as native), 0.459 mg/kg equivalent protein mass IV, rats, 0.459 mg/kg): 18 min and 19.8 min | time released BNP stayed above 20 ng/mL ([1]; following C2-FMOC-PEG2-40K-BNP IV dosing): 8 h | Peak concentration of the conjugate in plasma [1, 11]: 1300 ng/mL | half-life of the conjugate in plasma [1, 11]: 900 min | time plasma conjugate concentrations remained above 100 ng/mL [1, 11]: 24 h

[mono]-[mPEG-Butyr-ALD-10K]-[BNP-32] [ButyrALD-10K-BNP]
Cmax [1, 8]: 355 ng/mL | AUCINF [1, 9]: 96.6 ng·h/mL | CL [1, 9]: 79.17 mL/min/kg | MRTlast [1, 9]: 22.1 min | T½ [1, 9]: 16.3 min | Vss [1, 9]: 2.27 L/kg

dextran-butyrALD-40K-insulin [Dex-Ins]
Blood glucose level, Mean (db/db diabetic mice; Dex-Ins 250 ug/mouse i.p., time 0 hr, N = 4): 495 mg/dL | Blood glucose level, Mean (db/db diabetic mice; Dex-Ins 250 ug/mouse i.p., time 1 hr, N = 4): 263 mg/dL | Blood glucose level, Mean (db/db diabetic mice; Dex-Ins 250 ug/mouse i.p., time 2 hr, N = 4): 192 mg/dL | Blood glucose level, Mean (db/db diabetic mice; Dex-Ins 250 ug/mouse i.p., time 4 hr, N = 4): 462 mg/dL | Blood glucose level, Mean (db/db diabetic mice; Dex-Ins 250 ug/mouse i.p., time 8 hr, N = 4): 494 mg/dL | Blood glucose level, Mean (db/db diabetic mice; Dex-Ins 250 ug/mouse i.p., time 24 hr, N = 4): 517 mg/dL | decrease of db/db mice glucose levels (db/db diabetic mice; at 1 hr and 2 hr after administration, 250 ug/mouse i.p.): 40-60%
